{"source": "paper PMC6629785", "about": "“Synthesis and Pharmacological Evaluation of a Novel Peptide Based on Anemonia sulcata BDS-I Toxin as a New KV3.4 Inhibitor Exerting a Neuroprotective Effect Against Amyloid-β Peptide” (Frontiers in Chemistry, 2019)", "target": "T1, KV3.4 channels (Homo sapiens, UniProt Q03721)", "T1 construct": "expressed in transfected cells; host or cells: CHO cells, transient transfection with Lipofectamine 2000; cDNAs provided by Professor Goldstein, University of Chicago", "T1 sequence (Q03721 1-635)": "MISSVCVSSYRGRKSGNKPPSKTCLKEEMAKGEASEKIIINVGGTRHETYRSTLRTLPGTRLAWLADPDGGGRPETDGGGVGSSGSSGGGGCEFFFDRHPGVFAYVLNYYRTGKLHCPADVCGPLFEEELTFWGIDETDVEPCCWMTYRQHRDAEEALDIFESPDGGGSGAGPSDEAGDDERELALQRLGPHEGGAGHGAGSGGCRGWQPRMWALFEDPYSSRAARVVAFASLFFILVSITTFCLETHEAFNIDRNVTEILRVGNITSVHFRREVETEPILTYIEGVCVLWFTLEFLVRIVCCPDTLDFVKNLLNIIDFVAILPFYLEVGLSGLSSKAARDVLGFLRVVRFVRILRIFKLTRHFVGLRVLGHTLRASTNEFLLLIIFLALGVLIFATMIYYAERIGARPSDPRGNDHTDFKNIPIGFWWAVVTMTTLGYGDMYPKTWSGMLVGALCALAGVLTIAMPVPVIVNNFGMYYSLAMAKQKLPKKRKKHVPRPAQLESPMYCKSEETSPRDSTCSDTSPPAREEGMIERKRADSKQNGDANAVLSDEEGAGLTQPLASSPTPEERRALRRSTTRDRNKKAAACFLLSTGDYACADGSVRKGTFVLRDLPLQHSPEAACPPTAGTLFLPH", "T1 sequence (Q9Y6H6 1-103 partner)": "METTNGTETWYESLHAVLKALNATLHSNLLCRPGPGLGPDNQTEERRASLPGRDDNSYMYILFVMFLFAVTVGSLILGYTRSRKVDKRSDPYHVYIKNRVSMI", "assay": "Whole-cell patch clamp of Kv3.4 currents in CHO cells transiently transfected with Kv3.4/MiRP2", "assay_type": "cell-based", "conditions": "peptide 100 nM, acute application; CHO cells transfected with Kv3.4/MiRP2; whole-cell patch clamp", "protocol": "KV3.4 and MiRP2 channel subunits were expressed in Chinese hamster ovary (CHO) cells by transient transfection. CHO cells were grown in 100 mm plastic Petri dishes in Dulbecco's Modified Eagle Medium containing 10% fetal bovine serum (FBS), non-essential amino acids (0.1 mm), penicillin (50 U/ml), and streptomycin (50 μg/ml) in a humidified atmosphere at 37°C with 5% CO2 (Miceli et al., [2015]). KV3.4 and MiRP2 cDNAs were kindly provided by the Professor Goldstein of the Department of Pediatrics and Institute for Molecular Pediatric Sciences, University of Chicago, USA. For electrophysiological experiments, cells were seeded on glass cover-slips (Glaswarenfabrik Karl Hecht KG, Sondheim, Germany) coated with poly-L-lysine (50 μg/mL) and transfected the next day with the appropriate cDNAs using Lipofectamine 2000 according to guidelines for transfection. We performed electrophysiological experiments 48 h after transfection.\nCurrents from CHO cells were recorded at room temperature 1-2 days after transfection. The extracellular solution contained the following (in mM): 138 NaCl, 5.4 KCl, 2 CaCl2, 1 MgCl2, 10 glucose and 10 HEPES, adjusted pH 7.4 with NaOH. The pipette solution contained (in mM) the following: 140 KCl, 2 MgCl2, 10 EGTA, 10 HEPES, 5 Mg-ATP, adjusted pH 7.4 with KOH (Miceli et al., [2015]). KV3.4 currents were measured by applying voltage steps from −100 mV to +60 mV from a holding potential of −80 mV (Abbott et al., [2001]). Moreover, the total outward K^+ currents were recorded in NGF-differentiated PC-12 cells using the extracellular solution contained the following (in mM): 150 NaCl, 5.4 KCl, 3 CaCl2, 1 MgCl2, 10 HEPES, adjusted pH 7.4 with NaOH. The pipette solution contained the following (in mM): 140 KCl, 2 MgCl2, 10 HEPES, 10 glucose, 10 EGTA, and 1 Mg-ATP adjusted at pH 7.4 with KOH (Diochot et al., [1998]). All experiments were performed in the presence of 50 nM tetrodotoxin (TTX) and 10 μ M nimodipine in the extracellular solution. To discriminate K^+ current components appropriate electrophysiological protocols were used (Pannaccione et al., [2007]). Steady-state activation and inactivation properties were measured by using appropriate protocols (Pannaccione et al., [2005]). Capacitive currents were elicited by 5-mV depolarizing pulses from −80 mV and acquired at a sampling rate of 50 kHz. The capacitance of the membrane was calculated according to the following equation: Cm = τc·Io/ΔEm (1-I∞/Io), where Cm is membrane capacitance, τc is the time constant of the membrane capacitance, Io is the maximum capacitance current value, ΔEm is the amplitude of the voltage step, and I∞ is the amplitude of the steady-state current. K^+ currents were recorded by patch-clamp technique in CHO and NGF-differentiated PC-12 cells using a commercially available amplifier (Axopatch 200B, Molecular Devices) and Digidata 1322A interface (Molecular Devices, USA). The whole-cell configuration of the patch-clamp technique was adopted using glass micropipettes with a resistance of 2.5-5.0 MΩ. Data were acquired and analyzed using the pClamp software (version 9, Molecular Devices).\nFor the acute treatment, each peptide has been added in the extracellular solution. For each cell, we first recorded K^+ currents as previously described, in the absence of peptides. After that, we switched from the extracellular solution without BDS-I peptides to the extracellular solution containing the BDS-I peptide. In these conditions, we recorded K^+ currents until the steady-state was reached. This protocol has been performed to test the effect on KV3.4 currents of each BDS-I fragment as well as of BDS-I[1-8scr].\nTo identify the smallest BDS-I amino acid sequence able to block Kv3.4 activity, we evaluated the effect of the newly synthesized BDS-I fragments in CHO cells transiently transfected with Kv3.4/MiRP2, by patch clamp technique in whole cell configuration. […]", "data": [{"substance": "H-GDLWILRG-OH [BDS-I[13-20], overlapping 8-amino-acid fragment of BDS-I]", "values": [{"measurement": "ability to inhibit Kv3.4 currents (in words)", "result": "did not"}]}, {"substance": "H-GYGYTSNA-OH [BDS-I[25-32], overlapping 8-amino-acid fragment of BDS-I]", "values": [{"measurement": "ability to inhibit Kv3.4 currents (in words)", "result": "did not"}]}, {"substance": "H-NAYKWPNI-OH [BDS-I[31-38], overlapping 8-amino-acid fragment of BDS-I]", "values": [{"measurement": "ability to inhibit Kv3.4 currents (in words)", "result": "did not"}]}, {"substance": "H-NIAAYPH-OH [BDS-I[37-43], C-terminal 7-amino-acid fragment of BDS-I]", "values": [{"measurement": "ability to inhibit Kv3.4 currents (in words)", "result": "did not"}]}, {"substance": "H-RGTAPGGY-OH [BDS-I[19-26], overlapping 8-amino-acid fragment of BDS-I]", "values": [{"measurement": "ability to inhibit Kv3.4 currents (in words)", "result": "did not"}]}, {"substance": "H-SGKPGRGD-OH [BDS-I[7-14], overlapping 8-amino-acid fragment of BDS-I]", "values": [{"measurement": "ability to inhibit Kv3.4 currents (in words)", "result": "did not"}]}]}
